Data taken from patent US9668984B2, “Use of compounds to inhibit 5 α-reductase enzyme activity, and pharmaceutical and cosmetic compostions containing them” (GIULIANI S.P.A., priority 2008, dated 2017).
Marks after values point to notes of the source that are not given here.

Key:
5α-reductase = test: Modulation of 5α-reductase activity (testosterone to DHT conversion, ELISA) in mouse fibroblasts after 48 hours of treatment; format: cell-based; details: for % inhibition of 5α-reductase / Total DHT ng (±SE) / Inhibition of 5α-reductase activity in vitro (result in words): 0.1 mg/ml, 48 hours; for % inhibition of 5α-reductase / Total DHT ng (±SE): pre-incubation for 24 hours with testosterone 10 ng/ml; for % inhibition of 5α-reductase: confidence interval; for Total DHT ng (±SE): final table; for Testosterone, cell extract / Testosterone, supernatant / DHT, cell extract / DHT, supernatant / Final DHT, cell extract / Final DHT, supernatant / Total DHT produced: sample 100 μg/ml; for Testosterone, cell extract / Testosterone, supernatant / DHT, cell extract / DHT, supernatant: 48 h; for Testosterone, cell extract: Balb/c-3T3; for Testosterone, supernatant: Balb/c-3T3 pre-incubated 24 h with testosterone 10 ng/ml; for DHT, cell extract / DHT, supernatant: uncorrected measured DHT; for Final DHT, cell extract: corrected for testosterone crosslinking; for Final DHT, supernatant: measured DHT minus bovine serum DHT minus testosterone crosslinking; for Total DHT produced: per flask (supernatant 10 ml + cell extract 0.5 ml); for Inhibition of 5α-reductase activity in vitro (result in words): mouse fibroblasts Balb/c-3T3, versus untreated control
Method: Assessment of the modulation of 5α-reductase activity after treatment for 48 hours with the above-stated compounds in a cell line of mouse fibroblasts.
For this test, the fibroblasts were pretreated with testosterone to increase the basal production of 5α-reductase, then they were treated with the above-mentioned compounds for 48 hours.
At the end of the treatment, the conversion of testosterone into DHT was measured in the treated and untreated cell cultures, using a two-way ELISA. This procedure enables an estimation of the percentage inhibition or stimulation of the specific activity of 5α-reductase.
As a positive control, we used a titrated extract of Serenoa repens (saw palmetto), a plant known in the pharmacopoeia for its capacity to inhibit 5α-reductase and recommended for said purpose in the treatment of prostatic hyperplasia in males.
The cell model used for the in vitro test consisted of mouse fibroblasts Balb/c-3T3. This cell line derives from fibroblasts of […] mouse embryos.
The samples of the above-described compounds were solubilised as follows: • 2,4,6-octatrien-1-ol: 1 mg/ml in absolute ethanol • alternative Boehmeria: 5 mg/ml in growth medium+5% DMSO • traditional Boehmeria: 2.5 mg/ml in growth medium+5% DMSO • Ajuga reptans extract: 5 mg/ml in growth medium+5% DMSO • Finasteride: 5 mg/ml in absolute ethanol • Serenoa repens: 10 μl/ml in absolute ethanol Treatment and Exposure Pre-Incubation
The cells were seeded in 25 cm^2 flasks (T25) in DMEM (Dulbecco's […]) with the addition of 10% FBS (foetal bovine serum). As soon as confluence was achieved, the cultures were treated for 24 hours with 10 ng/ml of testosterone.
After the pre-incubation phase, the cell cultures were treated with said samples at the final concentration of 0.1 mg/ml. The Serenoa repens extract at 0.1 mg/ml was used as a positive control, while the negative control consisted in plates treated with the solvent. Exposure was protracted for 48 hours in the incubator at 37° C., 5% CO2, renewing the medium every 24 hours. Each sample was tested in duplicate.
At the end of the experiment, a cell count was conducted to assess any cytotoxic effects. The of DHT and testosterone content was measured using immunodiagnostic tests (ELISA) in the extracellular (conditioned growth media) and in the intracellular (cell extracts) compartments.
At the end of the experiment, the growth medium was collected from each flask and a cell extract was prepared.
This was done in four stages: • trypsinisation of the cell layer in situ in the flask • centrifugation and collection of the cells in pellets • extraction with Triton X-100 (1% in basal medium) • ultrasonication for 30 minutes. DHT and Testosterone Measurement
The two hormones, DHT and testosterone, were measured both in the supernatant (extracellular DHT/testosterone) and in the cell extracts (intracellular DHT/testosterone).
It is therefore of fundamental importance to determine the quantity of testosterone remaining at the end of the test in order to distinguish it from the newly-synthesised DHT. Moreover, the presence of DHT in foetal bovine serum (FBS), the main component in the growth medium, represents a source of exogenous DHT that must be taken into account in calculating the DHT actually produced by the cells starting from the testosterone.
The method involves the composition of a standard curve, calculated in an appropriate range of concentrations, and uses specific antibodies immobilised on a solid substrate directed against DHT/testosterone, and a reagent that competes for binding to the antibody.

androgenetic alopecia = test: Clinical pilot study, Group 1: androgenetic alopecia, topical administration on the scalp; format: in vivo, human
Method: (§1) A clinical pilot study was also conducted to assess the efficacy of a composition according to the invention in the treatment of male and female androgenetic alopecia and alopecia greata.
(§2) In the composition according to the invention forming the object of this clinical study, said active principle was a salt, and a potassium salt in particular, of 2,4,6-octatrienoic acid, formulated for topical administration on the scalp, in a single daily dose.
Thirty individuals of both genders were recruited (15 males and 15 females) aged between 18 and 55 years, suffering from androgenetic alopecia (grades I-III according to the Hamilton scale for men, and I-II according to the Ludwig scale for women). Since this was a pilot study, an open trial was conducted, administering the composition of the invention.
Exclusion criteria from the study were as follows: • concomitant hormonal and/or pharmacological therapies; • pregnancy and breast-feeding; • systemic hormonal, metabolic and autoimmune diseases; • specific trichological treatments in the previous three months; • concomitant inflammatory diseases of the scalp, e.g. seborrhoeic dermatitis, irritative or allergic dermatitis.
The clinical and dermoscopic assessment of the individuals to treat focused on: hair shaft diameter, presence of a perifollicular halo, evaluation of the anagen phase by epiluminescence study of the bulb.
After the baseline assessment at T0, before starting the treatment, two evaluations after the treatment were conducted, one at T1 after 1 month, and one at T2 after 3 months.
At each follow-up assessment, a clinical evaluation was performed using epiluminescence to establish the hair shaft diameter in a previously-established and marked area (MoleMax II, Dermal Instruments Italia).

alopecia greata = test: Clinical pilot study, group with alopecia greata (area celsi), topical administration on the scalp; format: in vivo, human
Method: as §1, §2
Alopecia greata (also called area celsi) is a disease involving sudden hair loss typically giving rise to bald patches (or areas).
A significant characteristic of the evolutional stages of alopecia greata is the presence of “exclamation mark” hairs, so called because they appear tapered towards the base.
For the group of individuals treated, the pilot study only enabled us to identify a trend (clinical improvement, stability, worsening) within the short time span considered, i.e. from the baseline T0 before starting the treatment up to T2 after three months of treatment, based on the following parameters: • hair loss • progression of bald patches on the scalp • presence of exclamation mark hairs Results

[1] = tested on: transplanted hair follicles; test: Further clinical study: topical scalp treatment around hair transplantation; format: in vivo, human; details: once a day from 15 days before to 90 days after the transplant
[2] = T2 after 3 months, mean at T0 0.4 mm
[3] = T2 after 3 months, mean at T0 56%
[4] = single daily topical dose, epiluminescence, follow-up to T2 (3 months)
[5] = T0 to T2 (three months of treatment)

Molecule: C/C=C/C=C/C=C/CO [2,4,6-octatrien-1-ol, 2E,4E,6E-Octatrien-1-ol]
- % inhibition of 5α-reductase (5α-reductase): 27-43%
- Total DHT ng (±SE) (5α-reductase): 2.3 (±0.1) ng
- Testosterone, cell extract (5α-reductase): 1 ng/mL
- Testosterone, supernatant (5α-reductase): 1.25 ng/mL
- DHT, cell extract (5α-reductase): 450 pg/mL
- DHT, supernatant (5α-reductase): 425 pg/mL
- Final DHT, cell extract (5α-reductase): 363 pg/mL
- Final DHT, supernatant (5α-reductase): 216 pg/mL
- Total DHT produced (5α-reductase): 2.34 ng

Molecule: CC=CC=CC=CC(=O)[O-].[K+] [potassium salt of 2,4,6-octatrienoic acid]
- Individuals treated with androgenetic alopecia parameters modified in a globally positive manner (androgenetic alopecia; 3 months topical treatment): 83%
- Hair shaft diameter at T2, Group A) (androgenetic alopecia; [2]): 0.7 mm
- Hair shaft diameter at T2, Group B) (androgenetic alopecia; [2]): 0.6 mm
- Hair shaft diameter at T2, Group C) (androgenetic alopecia; [2]): 0.4 mm
- Percentage of bulbs in the anagen phase at T2, Group A) (androgenetic alopecia; [3]): 83%
- Percentage of bulbs in the anagen phase at T2, Group B) (androgenetic alopecia; [3]): 74%
- Percentage of bulbs in the anagen phase at T2, Group C) (androgenetic alopecia; [3]): 61%
- Side effects after using the product (androgenetic alopecia; androgenetic alopecia group): None of the individuals showed any side effects
- Cases with increase in hair shaft diameter judged highly significant (A) (androgenetic alopecia; [4]): 62%
- Cases with increase in hair shaft diameter judged not significant (C) (androgenetic alopecia; [4]): 17%
- Cases with increase in hair shaft diameter judged significant (B) (androgenetic alopecia; [4]): 21%
- Individuals in whom defluvium of hair in the affected areas diminished (alopecia greata; [5]): 55%
- Individuals with stabilisation of the bald patches (alopecia greata; [5]): 15%
- Individuals with stoppage in the progression and slight reduction in the extent of the bald patches (alopecia greata; [5]): 43%
- Number of exclamation mark hairs at T2, individuals with stabilisation or slight improvement in bald patches (alopecia greata; T2, mean 82% at T0): 46%
- Number of exclamation mark hairs at T2, individuals with worsening bald patches (alopecia greata; T2, mean 83% at T0): 82%
- Side effects after using the product (alopecia greata; alopecia greata group): None of the individuals revealed any side effects
- Individuals treated with global trend towards an improvement (clinical improvement and stabilisation of the bald patches) (alopecia greata; three months of treatment): 58%

Molecule: 2,4,6-octatrienoic acid salt
- Prevention of premature apoptosis and catagen in transplanted hair follicles (result in words) [1]: promising

Molecule: CC(C)(C)NC(=O)[C@H]1CC[C@H]2[C@@H]3CC[C@H]4NC(=O)C=C[C@]4(C)[C@H]3CC[C@]12C [Finasteride]
- Inhibition of 5α-reductase activity in vitro (result in words) (5α-reductase): no significant inhibitory effect
- Inhibition of 5α-reductase activity in vitro (result in words) (5α-reductase; listed as finasteride): no real inhibitory effect
- % inhibition of 5α-reductase (5α-reductase): 0-15* %
- Total DHT ng (±SE) (5α-reductase): 3.6 (±0.3) ng
- Testosterone, cell extract (5α-reductase): 3.1 ng/mL
- Testosterone, supernatant (5α-reductase): 0 ng/mL
- DHT, cell extract (5α-reductase): 400 pg/mL
- DHT, supernatant (5α-reductase): 450 pg/mL
- Final DHT, cell extract (5α-reductase): 130 pg/mL
- Final DHT, supernatant (5α-reductase): 350 pg/mL
- Total DHT produced (5α-reductase): 3.57 ng
